# What was measured:
# [1] = system: Tetranychus urticae; assay: Tetranychus urticae spray test, OP-resistant (TETRUR); format: in vivo; conditions: for efficacy / Emax at 100 g/ha: 100 g/ha; for efficacy: bean leaf discs, after 6 days; for Emax at 100 g/ha / Emax at 500 g/ha: Tetranychus urticae, 144 h, TETRUR, read-out: % efficacy; for Emax at 100 g/ha: 6 dat (comparative table); for Emax at 500 g/ha: 6 dat
# Description: (§1) Solvent: 78.0 parts by weight of acetone • • 1.5 parts by weight of dimethylformamide
# (§2) Emulsifier: alkylaryl polyglycol ether
# (§3) To produce a suitable active compound preparation, 1 part by weight of active compound is dissolved with the specified parts by weight of solvent and made up to the desired concentration with water containing an emulsifier concentration of 1000 ppm. To produce further test concentrations, the formulation is diluted with emulsifier-containing water.
# Discs of bean leaves (Phaseolus vulgaris) infested with all stages of the greenhouse red spider mite (Tetranychus urticae) are sprayed with an active compound preparation of the desired concentration.
# After 6 days, the efficacy in % is determined. 100% means that all the spider mites have been killed; 0% means that no spider mites have been killed.
# After the desired period of time, the efficacy in % is determined. 100% means that all the spider mites have been killed; 0% means that no spider mites have been killed.
# [2] = system: Meloidogyne incognita; assay: Meloidogyne incognita test; format: in vivo; conditions: 20 ppm, lettuce, after 14 days
# Description: Solvent: 125.0 parts by weight of acetone To produce a suitable active compound preparation, 1 part by weight of active compound is mixed with the stated amount of solvent and the concentrate is diluted to the desired concentration with water. Vessels are filled with sand, active compound solution, an egg/larvae suspension of the southern root-knot nematode (Meloidogyne incognita) and lettuce seeds. The lettuce seeds germinate and the plants develop. The galls develop on the roots. After 14 days, the nematicidal efficacy in % is determined by the formation of galls. 100% means that no galls were found; 0% means that the number of galls on the treated plants corresponds to the untreated control.
# [3] = system: Phaedon cochleariae; assay: Phaedon cochleariae spray test (PHAECO); format: in vivo; conditions: for efficacy: larvae on Chinese cabbage leaf discs, after 7 days; for Emax at 20 g/ha: Phaedon cochleariae, 168 h, PHAECO, 7 dat, read-out: % efficacy
# Description: as §1, §2, §3
# After 7 days, the efficacy in % is determined. 100% means that all the beetle larvae have been killed; 0% means that no beetle larvae have been killed.
# After the desired period of time, the efficacy in % is determined. 100% means that all the beetle larvae have been killed; 0% means that no beetle larvae have been killed.
# [4] = system: Myzus persicae; assay: Myzus persicae spray test (MYZUPE); format: in vivo; conditions: 120 h; for pest or weed control at 500 g/ha / pest or weed control at 100 g/ha: foliar, Chinese cabbage leaf discs, after 5 days, read-out: efficacy; for Emax at 20 g/ha: MYZUPE, 5 dat, read-out: % efficacy
# Description: Solvent: 78 parts by weight of acetone • • 1.5 parts by weight of dimethylformamide
# as §2, §3
# Discs of Chinese cabbage leaves (Brassica pekinensis) infested by all stages of the green peach aphid (Myzus persicae) are sprayed with an active compound preparation of the desired concentration.
# (§4) After 5 days, the efficacy in % is determined. 100% means that all the aphids have been killed; 0% means that no aphids have been killed.
# as §1
# After the desired period of time, the efficacy in % is determined. 100% means that all the aphids have been killed; 0% means that no aphids have been killed.
# [5] = system: Ctenocephalides felis; assay: Ctenocephalides felis oral test; format: in vivo; conditions: 100 ppm in citrated cattle blood, adult cat fleas, after 2 days
# Description: Solvent: dimethyl sulfoxide To produce a suitable active compound preparation, 10 mg of active compound are mixed with 0.5 ml of dimethyl sulfoxide. Dilution with citrated cattle blood gives the desired concentration. About 20 unfed adult cat fleas (Ctenocephalides felis) are placed into a chamber which is closed at the top and bottom with gauze. A metal cylinder whose bottom end is closed with parafilm is placed onto the chamber. The cylinder contains the blood/active compound preparation, which can be imbibed by the fleas through the parafilm membrane. After 2 days, the kill in % is determined. 100% means that all of the fleas have been killed; 0% means that none of the fleas have been killed.
# [6] = system: Myzus persicae; assay: Myzus persicae oral test; format: in vivo; conditions: 120 h, after 5 days, read-out: efficacy
# Description: Solvent: 100 parts by weight of acetone
# To produce a suitable active compound preparation, 1 part by weight of active compound is dissolved with the stated parts by weight of solvent and made up to the desired concentration with water.
# 50 μl of the active compound preparation are transferred into microtitre plates and made up to a final volume of 200 μl with 150 μl of IPL41 insect medium (33%+15% sugar). Subsequently, the plates are sealed with parafilm, which a mixed population of green peach aphids (Myzus persicae) within a second microtitre plate is able to puncture and imbibe the solution.
# as §4
# [7] = system: Ctenocephalides felis; assay: Ctenocephalides felis in vitro contact test with adult cat fleas; format: in vivo; conditions: 5 μg/cm^2 (=500 g/ha), after 48 h
# Description: For the coating of the test tubes, 9 mg of active compound are first dissolved in 1 ml of acetone p.a. and then diluted to the desired concentration with acetone p.a. 250 μl of the solution are distributed homogeneously on the inner walls and the base of a 25 ml glass tube by turning and rocking on an orbital shaker (rocking rotation at 30 rpm for 2 h). With 900 ppm of active compound solution and internal surface area 44.7 cm^2, given homogeneous distribution, an area-based dose of 5 μg/cm^2 is achieved.
# After the solvent has evaporated off, the tubes are populated with 5-10 adult cat fleas (Ctenocephalides felis), sealed with a perforated plastic lid and incubated in a horizontal position at room temperature and ambient humidity. After 48 h, efficacy is determined. To this end, the tubes are stood upright and the fleas are knocked to the base of the tube. Fleas which remain motionless at the base or move in an uncoordinated manner are considered to be dead or moribund.
# 100% efficacy means that all the fleas were dead or moribund. 0% efficacy means that no fleas were harmed.
# [8] = log P by HPLC on reversed-phase column (EEC Directive 79/831 Annex V.A8); format: physicochemical; conditions: reversed-phase C18 HPLC column, C 18 reversed phase, 55° C., pH 7.8, read-out: log P (neutral)
# From the text: Called log P (neutral) in the table.
# [9] = system: Lucilia cuprina; assay: Lucilia cuprina test; format: in vivo; conditions: 100 ppm, L1 larvae, after 2 days
# Description: Solvent: dimethyl sulfoxide To produce a suitable active compound preparation, 10 mg of active compound are mixed with 0.5 ml of dimethyl sulfoxide, and the concentrate is diluted with water to the desired concentration. About 20 L1 larvae of the Australian sheep blowfly (Lucilia cuprina) are transferred into a test vessel containing minced horsemeat and the active compound preparation of the desired concentration. After 2 days, the kill in % is determined. 100% means that all the larvae have been killed; 0% means that no larvae have been killed.
# [10] = system: Nezara viridula; assay: Nezara viridula spray test (NEZAVI); format: in vivo; conditions: 96 h, 4 dat, read-out: % efficacy
# Description: (§5) Solvent: 52.5 parts by weight of acetone • 7 parts by weight of dimethylformamide
# as §2
# as §3, with “water. If the addition of ammonium salts or/and penetrants is required, these are each added in a concentration of 1000 ppm to the formulation solution.” for “water.”
# Barley plants (Hordeum vulgare) infected with larvae of the Southern green shield bug (Nezara viridula) are sprayed with an active compound preparation of the desired concentration.
# After the desired period of time, the efficacy in % is determined. 100% means that all of the shield bugs have been killed; 0% means that none of the shield bugs have been killed.
# [11] = system: Nilaparvata lugens; assay: Nilaparvata lugens spray test (NILALU); format: in vivo; conditions: 96 h, 4 dat, read-out: % efficacy
# Description: as §5, §2
# as §3, with “water. If the addition of ammonium salts or/and penetrants is required, these are each added in a concentration of 1000 ppm to the formulation solution.” for “water.”
# Rice plants (Oryza sativa) are sprayed with an active compound preparation of the desired concentration and then populated with larvae of the brown planthopper (Nilaparvata lugens).
# After the desired period of time, the efficacy in % is determined. 100% means that all of the planthoppers have been killed; 0% means that none of the planthoppers have been killed.
SMILES,nematicidal efficacy (formation of galls) [2],efficacy (kill in %) [5],pest or weed control at 4 ppm [6],pest or weed control at 20 ppm [6],pest or weed control at 100 g/ha [4],further results
CCNC(=O)Nc1ccc(S(=O)(=O)CC)c(-c2nc3cc(C(F)(F)F)ncc3n2C)n1 [Example I-1],100%,100%,–,–,–,efficacy [1]: 90%; Emax at 100 g/ha [1]: 90%; Emax at 500 g/ha [1]: 90%; efficacy ([3]; 500 g/ha): 100%; Emax at 20 g/ha [3]: 83%; pest or weed control at 500 g/ha [4]: 90%
CCS(=O)(=O)c1ccc(NC(=O)NCCC#N)nc1-c1nc2cc(C(F)(F)F)ncc2n1C [Example I-2],100%,100%,100%,100%,–,pest or weed control at 500 g/ha [4]: 90%
CCS(=O)(=O)c1ccc(NC(=O)NCC[S+](C)[O-])nc1-c1nc2cc(C(F)(F)F)ncc2n1C (stereo not shown) [Example I-3],90%,100%,100%,100%,100%,efficacy [1]: 100%
"CCS(=O)(=O)c1ccc(NC(=O)NC)nc1-c1nc2cc(C(F)(F)F)ncc2n1C [Example I-4, 1-[5-Ethylsulfonyl-6-[3-methyl-6-(trifluoromethyl)imidazo[4,5-c]pyridin-2-yl]-2-pyridyl]-3-methylurea]",–,100%,–,–,–,efficacy ([3]; 500 g/ha): 100%; efficacy [7]: 100%; chromatographic logP [8]: 1.83; efficacy (kill in %) [9]: 100%; pest or weed control at 500 g/ha [4]: 90%; Emax at 20 g/ha [10]: 100%
CCS(=O)(=O)c1ccc(NC(=O)NCCOC)nc1-c1nc2cc(C(F)(F)F)ncc2n1C [Example I-5],100%,80%,100%,100%,–,efficacy (kill in %) [9]: 100%; pest or weed control at 500 g/ha [4]: 100%
CCS(=O)(=O)c1ccc(NC(=O)NCCSC)nc1-c1nc2cc(C(F)(F)F)ncc2n1C [Example I-6],–,–,100%,100%,90%,efficacy [1]: 70%; efficacy ([3]; 100 g/ha): 100%
CCS(=O)(=O)c1ccc(NC(=O)NC(C)C)nc1-c1nc2cc(C(F)(F)F)ncc2n1C [Example I-7],90%,100%,–,–,–,–
CCS(=O)(=O)c1ccc(NC(=O)NCCS(C)(=O)=O)nc1-c1nc2cc(C(F)(F)F)ncc2n1C [Example I-8],–,100%,90%,100%,90%,efficacy [1]: 100%
CCS(=O)(=O)c1ccc(N(C)C(=O)NC)nc1-c1nc2cc(C(F)(F)F)ncc2n1C [Example I-12],–,–,–,–,90%,Emax at 4 g/ha [11]: 90%; Emax at 20 g/ha [4]: 90%
CCS(=O)(=O)c1ccc(NC(=O)n2cc(Br)cn2)nc1-c1nc2cc(C(F)(F)F)ncc2n1C [Example I-13],–,–,90%,–,90%,–
CCS(=O)(=O)c1ccc(NC(=O)N2CCCC2)nc1-c1nc2cc(C(F)(F)F)ncc2n1C [Example I-14],–,–,100%,–,90%,–
CCS(=O)(=O)c1ccc(NC(=O)N(C)C)nc1-c1nc2cc(C(F)(F)F)ncc2n1C [Example I-15],100%,–,100%,–,90%,efficacy ([3]; 100 g/ha): 100%
"CCC(=O)Nc1ccc(S(=O)(=O)CC)c(-c2nc3cc(C(F)(F)F)ncc3n2C)n1 [Example No. 13 known from WO 2016/124557, reference compound]",–,–,–,–,–,Emax at 100 g/ha [1]: 0%; Emax at 500 g/ha [1]: 70%; Emax at 20 g/ha [3]: 50%
"CCS(=O)(=O)c1ccc(N(C)C(C)=O)nc1-c1nc2cc(C(F)(F)F)ncc2n1C [Example No. 69 known from WO 2016/124557, reference compound]",–,–,–,–,–,Emax at 4 g/ha [11]: 0%; Emax at 20 g/ha [4]: 0%
CCS(=O)(=O)c1ccc(NC(C)=O)nc1-c1nc2cc(C(F)(F)F)ncc2n1C [reference compound],–,–,–,–,–,Emax at 20 g/ha [10]: 0%
